# Values quoted from earlier work, collected in patent US8044033B2, “Fluorocytidine derivatives and COX-2 inhibitors for the treatment of cancer” (The Board of Regents of the University of Texas System, priority 2006, dated 2011).
# Read-outs that look alike come from different tables or passages of the source.
# Tests used:
# [1] = tested on: metastatic colorectal cancer
# [2] = First-line therapy, no radiation, cross-study comparison
# [3] = first-line treatment of metastatic colorectal cancer
smiles,measurement,setting,value
"CCCCCOC(=O)Nc1nc(=O)n([C@@H]2O[C@H](C)[C@@H](O)[C@H]2O)cc1F [Capecitabine, capecitabine]",Complete response (%),[1]; [2],1%
same,Median OS (months),[1]; [2],12.4-13.2 months
same,Median OS (months),"[1]; Second-line therapy, no radiation, cross-study comparison",12.7 months
same,overall survival,[1]; [3],12 months
same,response rate,[1]; [3],25%
same,time to tumor progression in half of the patients,[1]; monotherapy,2-4 months
same,incidence of hand-foot syndrome (HFS),1250 mg/m2/day bid for two weeks every 3 weeks,54%
same,incidence of grade 2/3 HFS,"earlier study, capecitabine dose 1000 mg/m2/d bid (Lin et al., 2002)",34.2%
